Our source for the T/C values is PubChem BioAssay AID330 (DTP/NCI, 2004).

The subject of this test is P388 leukemia ip, CD2F1 mice, survival T/C. In words: NCI In Vivo Anticancer Drug Screen. Data for tumor model P388 Leukemia (intraperitoneal) in CD2F1 (CDF1) mice. To be noted: endpoint: median survival time, higher = longer survival. A digest of the protocol: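 Mice carrying the transplanted tumor received test compound or vehicle. Survival was recorded in each group, and the value is the treated-group measurement divided by that of the vehicle-treated control group.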

Where [1] appears, read: dose: 50.0 mg/kg/injection, schedule: Q01DX005 (ip), vehicle: saline with Tween-80.
Setting [2] is: dose: 100.0 mg/kg/injection, schedule: Q01DX005 (ip), vehicle: saline with Tween-80.
Where [3] appears, read: dose: 200.0 mg/kg/injection, schedule: Q01DX005 (ip), vehicle: saline with Tween-80.
The mark [4] stands for this setting: dose: 50.0 mg/kg/injection, schedule: Q01DX009 (ip), vehicle: saline with Tween-80.
The mark [5] stands for this setting: dose: 100.0 mg/kg/injection, schedule: Q01DX009 (ip), vehicle: saline with Tween-80.
Setting [6] is: dose: 200.0 mg/kg/injection, schedule: Q01DX009 (ip), vehicle: saline with Tween-80.
Setting [7] is: dose: 60.0 mg/kg/injection, schedule: Q01DX005 (ip), vehicle: saline with Tween-80.
[8] abbreviates: dose: 120.0 mg/kg/injection, schedule: Q01DX005 (ip), vehicle: saline with Tween-80.
[9] abbreviates: dose: 240.0 mg/kg/injection, schedule: Q01DX005 (ip), vehicle: saline with Tween-80.
[10] abbreviates: dose: 25.0 mg/kg/injection, schedule: Q01DX009 (ip), vehicle: saline with Tween-80.
Where [11] appears, read: dose: 6.25 mg/kg/injection, schedule: Q01DX009 (ip), vehicle: saline with Tween-80.
The mark [12] stands for this setting: dose: 12.5 mg/kg/injection, schedule: Q01DX009 (ip), vehicle: saline with Tween-80.
Setting [13] is: dose: 100.0 mg/kg/injection, schedule: Q01DX001 (ip), vehicle: Klucel (hydroxypropylcellulose) (HPC).
Where [14] appears, read: dose: 200.0 mg/kg/injection, schedule: Q01DX001 (ip), vehicle: Klucel (hydroxypropylcellulose) (HPC).

Several values for one entry are separate records, joined by “and”; a condition that tells them apart may be missing. Equal values may be shown once. Toxic doses and inconclusive results are not listed. Peptide text beside a SMILES is read from it.

For `O=C(O)C1(Cc2ccc(O)cc2)NCCS1` (stereo unspecified), the T/C by setting is: (dose: 100.0 mg/kg/injection, schedule: Q04DX002 (ip), vehicle: Klucel (hydroxypropylcellulose) (HPC)) 104 % of control; (dose: 200.0 mg/kg/injection, schedule: Q04DX002 (ip), vehicle: Klucel (hydroxypropylcellulose) (HPC)) 104 % of control.
On to `Nc1n[nH]c(=O)c2cccnc12`, for which the T/C reads like this: under setting [1], 97 % of control; under setting [2], 99 % of control; under setting [3], 101 % of control.
With `O=c1oc(-c2ccccc2)nc2cc(Cl)ccc12`, the T/C is 100 % of control (dose: 100.0 mg/kg/injection, schedule: Q04DX003 (ip), vehicle: Klucel (hydroxypropylcellulose) (HPC)); 90 % of control (dose: 200.0 mg/kg/injection, schedule: Q04DX003 (ip), vehicle: Klucel (hydroxypropylcellulose) (HPC)); 107 % of control (dose: 400.0 mg/kg/injection, schedule: Q04DX003 (ip), vehicle: Klucel (hydroxypropylcellulose) (HPC)).
As to `Nc1ncnc2c1ncn2C1OC(COC2C(CO)OC(OC(C(=O)O)C(O)C(OP(=O)(O)O)C(O)C(=O)O)C(O)C2O)C(O)C1O` (stereo unspecified), the T/C (dose: 0.25 mg/kg/injection, schedule: Q01DX009 (ip), vehicle: saline) is 96 % of control; the T/C (dose: 0.5 mg/kg/injection, schedule: Q01DX009 (ip), vehicle: saline) was 105 % of control; the T/C (dose: 1.0 mg/kg/injection, schedule: Q01DX009 (ip), vehicle: saline) was 96 % of control.
Take `CCCN(CCC)c1ccc(N=Nc2ccccc2C(=O)O)cc1`: the T/C is, setting by setting: under setting [4], 102 % of control; under setting [5], 105 % of control; under setting [6], 112 % of control; (dose: 400.0 mg/kg/injection, schedule: Q01DX009 (ip), vehicle: saline with Tween-80) 110 % of control.
For the compound `O=C1C(c2cnc3c(n2)CCC=C3)=C(O)c2ccccc21`, the T/C is, setting by setting: under setting [7], 99 % of control; under setting [8], 100 % of control; under setting [9], 100 % of control.
On to `O=C(O)C(Cc1ccc(O)cc1)NC(c1ccccc1)P(=O)(O)O` (stereo unspecified), for which the T/C by setting is: under setting [7], 108 % of control; under setting [8], 98 % of control; under setting [9], 99 % of control.
`CC1(C(=O)O)CCCC2(C)C3CC(=O)OC3(CC(=O)O)CCC12` (stereo unspecified): the T/C is 91 % of control (dose: 7.5 mg/kg/injection, schedule: Q01DX009 (ip), vehicle: saline + alcohol); 98 % of control (dose: 15.0 mg/kg/injection, schedule: Q01DX009 (ip), vehicle: saline + alcohol); 103 % of control (dose: 30.0 mg/kg/injection, schedule: Q01DX009 (ip), vehicle: saline + alcohol).
With `CC1=C2C3OC(=O)C(C)C3CCC2(C)C=C(Br)C1=O` (stereo unspecified), the T/C is 106 % of control (dose: 60.0 mg/kg/injection, schedule: Q01DX005 (ip), vehicle: Klucel (hydroxypropylcellulose) (HPC)); 101 % of control (dose: 100.0 mg/kg/injection, schedule: Q04DX002 (ip), vehicle: saline with Tween-80); 98 % of control (dose: 120.0 mg/kg/injection, schedule: Q01DX005 (ip), vehicle: Klucel (hydroxypropylcellulose) (HPC)); 97 % of control (dose: 200.0 mg/kg/injection, schedule: Q04DX002 (ip), vehicle: saline with Tween-80); 104 % of control (dose: 240.0 mg/kg/injection, schedule: Q01DX005 (ip), vehicle: Klucel (hydroxypropylcellulose) (HPC)); 97 % of control (dose: 400.0 mg/kg/injection, schedule: Q04DX002 (ip), vehicle: saline with Tween-80).
For the compound `CCCOc1ccc(C(N)=S)cc1`, the T/C (dose: 12.5 mg/kg/injection, schedule: Q01DX009 (ip), vehicle: Klucel (hydroxypropylcellulose) (HPC)) is 98 % of control and 103 % of control; the T/C (dose: 25.0 mg/kg/injection, schedule: Q01DX009 (ip), vehicle: Klucel (hydroxypropylcellulose) (HPC)) is 101 % of control and 105 % of control; the T/C (dose: 50.0 mg/kg/injection, schedule: Q01DX009 (ip), vehicle: Klucel (hydroxypropylcellulose) (HPC)) is 115 % of control and 120 % of control and 96 % of control; the T/C (dose: 100.0 mg/kg/injection, schedule: Q01DX009 (ip), vehicle: Klucel (hydroxypropylcellulose) (HPC)) was 86 % of control.
As for `Nc1cn(C2OC(CO)C(O)C2O)c(=O)[nH]c1=O` (stereo unspecified), the T/C under setting [10] is 95 % of control and the T/C under setting [4] is 92 % of control.
As to `O=C(Nc1ccc(CCO)cc1)c1cccc(F)c1`, the T/C is, setting by setting: under setting [7], 93 % of control; under setting [8], 86 % of control; under setting [9], 86 % of control.
Consider `CC(Oc1ccccc1)C(=O)O` (stereo unspecified), for which the T/C by setting is: under setting [4], 98 % of control; under setting [5], 97 % of control.
In the case of `Nc1ccccc1C(=O)NCCc1c[nH]c2ccccc12`, the T/C under setting [1] is 99 % of control, the T/C under setting [2] was 107 % of control and the T/C under setting [3] was 107 % of control.
On to `Nc1nc(Cl)c2[nH]cnc2n1`, for which the T/C was 108 % of control under setting [4]; 95 % of control (dose: 50.0 mg/kg/injection, schedule: Q04DX003 (ip), vehicle: saline with Tween-80); 99 % of control under setting [5]; 100 % of control (dose: 100.0 mg/kg/injection, schedule: Q04DX003 (ip), vehicle: saline with Tween-80); 100 % of control (dose: 200.0 mg/kg/injection, schedule: Q04DX003 (ip), vehicle: saline with Tween-80).
As for `CSC(=S)NC#N`, the T/C under setting [10] is 111 % of control, the T/C under setting [4] was 100 % of control, the T/C under setting [5] was 107 % of control and the T/C under setting [6] was 108 % of control.
On to `CC1(C)OC(=O)C(=Cc2ccc[nH]2)C(=O)O1`, for which the T/C reads like this: (dose: 50.0 mg/kg/injection, schedule: Q01DX005 (ip), vehicle: Klucel (hydroxypropylcellulose) (HPC)) 98 % of control; (dose: 100.0 mg/kg/injection, schedule: Q01DX005 (ip), vehicle: Klucel (hydroxypropylcellulose) (HPC)) 105 % of control; (dose: 200.0 mg/kg/injection, schedule: Q01DX005 (ip), vehicle: Klucel (hydroxypropylcellulose) (HPC)) 107 % of control.
In the case of `[C-]#[N+]C([N+]#[C-])=C(C)OCC`, the T/C runs as follows: under setting [11], 98 % of control; under setting [12], 89 % of control; under setting [10], 105 % of control; (dose: 100.0 mg/kg/injection, schedule: Q01DX009 (ip), vehicle: saline) 101 % of control.
On to `O=C(c1ccccc1)C1CCCN(CCc2ccccc2)C1` (stereo unspecified), for which the T/C under setting [1] was 108 % of control and the T/C under setting [2] is 109 % of control.
In the case of `Cn1c(=O)c2[nH]c(C3COCCO3)nc2n(C)c1=O` (stereo unspecified), the T/C reads like this: under setting [7], 91 % of control; under setting [9], 87 % of control.
As to `N#Cc1cn(C2OC(CO)C(O)C2O)c2ncnc(Cl)c12` (stereo unspecified), the T/C under setting [7] was 151 % of control and 174 % of control; the T/C under setting [8] was 111 % of control.
In the case of `Cc1ccc(-c2nc3sccn3c2C=O)cc1`, the T/C under setting [13] was 95 % of control; the T/C under setting [14] was 96 % of control; the T/C (dose: 400.0 mg/kg/injection, schedule: Q01DX001 (ip), vehicle: Klucel (hydroxypropylcellulose) (HPC)) was 96 % of control.
Regarding `O=C1OCC2CC3c4ccccc4C12c1ccccc13` (stereo unspecified), the T/C by setting is: (dose: 25.0 mg/kg/injection, schedule: Q01DX001 (ip), vehicle: Klucel (hydroxypropylcellulose) (HPC)) 100 % of control; (dose: 50.0 mg/kg/injection, schedule: Q01DX001 (ip), vehicle: Klucel (hydroxypropylcellulose) (HPC)) 94 % of control; under setting [13], 100 % of control; under setting [14], 103 % of control.
In the case of `CCC(C)C(N)C(=O)NC(C(=O)O)C(C)C` (stereo not drawn) (H-Ile-Val-OH; configuration not given here), the T/C by setting is: (dose: 60.0 mg/kg/injection, schedule: Q01DX005 (ip), vehicle: saline) 95 % of control; (dose: 120.0 mg/kg/injection, schedule: Q01DX005 (ip), vehicle: saline) 103 % of control; (dose: 240.0 mg/kg/injection, schedule: Q01DX005 (ip), vehicle: saline) 95 % of control.
As for `OC(c1cc2cc(Br)ccc2c2cc(Br)ccc12)C1CCCCN1` (stereo unspecified), the T/C is, setting by setting: under setting [11], 107 % of control; under setting [12], 109 % of control; under setting [10], 101 % of control.
Turning to `COC1=C(OC)C(=O)C=CC1=O`, the T/C (dose: 0.78 mg/kg/injection, schedule: Q01DX009 (ip), vehicle: saline) is 101 % of control; the T/C (dose: 1.56 mg/kg/injection, schedule: Q01DX009 (ip), vehicle: saline) is 94 % of control; the T/C (dose: 3.13 mg/kg/injection, schedule: Q01DX009 (ip), vehicle: saline) was 96 % of control; the T/C (dose: 6.25 mg/kg/injection, schedule: Q01DX009 (ip), vehicle: saline) is 102 % of control.
On to `S=C(Nc1ccccc1)Nc1nccs1`, for which the T/C by setting is: under setting [4], 108 % of control; under setting [5], 107 % of control; under setting [6], 117 % of control.
